According to patent US20040171696A1, “Pharmaceutical composition for the treatment of the decline and/or damage of cognitive functions” (priority 2001, published 2004):

Tests used:
Male Wistar rats = experiment: step through passive avoidance learning; assay type: in vivo, rat; conditions: ip, FIG. 1
Method: Male Wistar rats weighing 200-220 g were used. The animals were obtained from Charles River Co. They were kept in a room with normal 12-12 h light dark cycle (light on: 06:00) at a relative humidity of 60±10%.
The experiment was performed in a five-channel “step through”-type passive avoidance learning apparatus. The equipment consisted of two adjacent Plexi-glass boxes of 20×20×16 cm. One of them was made of regular transparent Plexi-glass and the other one was made of black, non-transparent Plexi-glass. The boxes were connected with a 7.5×8 cm passage way, equipped with a computer-controlled guillotine-door. The passage of the rats through the door was detected by infrared photocells arranged in two parallel lines in the opening of the passage way. The door was automatically closed when the animals passed through. The dark compartment was equipped with stainless steel grid floor through which electric foot shocks could be delivered to the animals. […]
The individually numbered animals were placed into the light compartment of the equipment. […] Step through latency was automatically determined. […]
After 24 h the animals were placed again in the light compartment of the test apparatus and step-through latency was measured as described at Acquisition day, except that no foot shock was applied to the animals in any group on the second day. […]

rats = conditions: 1 and 10 mg/kg per os; cited from earlier work
central 5-HT2C receptors = central 5-HT2C receptors (Homo sapiens, UniProt P28335); conditions: cited from earlier work
[1] = intraperitoneal 1 and 10 mg/kg; cited from earlier work
[2] = 3 mg/kg single subcutaneous administration; cited from earlier work
[3] = as low as 0.7 mg/kg intraperitoneal; cited from earlier work
[4] = per os 10 and 30 mg/kg; cited from earlier work
central 5-HT2A receptors = central 5-HT2A receptors (Homo sapiens, UniProt P28223); conditions: cited from earlier work
Sequence of central 5-HT2A receptors (P28223 whole entry): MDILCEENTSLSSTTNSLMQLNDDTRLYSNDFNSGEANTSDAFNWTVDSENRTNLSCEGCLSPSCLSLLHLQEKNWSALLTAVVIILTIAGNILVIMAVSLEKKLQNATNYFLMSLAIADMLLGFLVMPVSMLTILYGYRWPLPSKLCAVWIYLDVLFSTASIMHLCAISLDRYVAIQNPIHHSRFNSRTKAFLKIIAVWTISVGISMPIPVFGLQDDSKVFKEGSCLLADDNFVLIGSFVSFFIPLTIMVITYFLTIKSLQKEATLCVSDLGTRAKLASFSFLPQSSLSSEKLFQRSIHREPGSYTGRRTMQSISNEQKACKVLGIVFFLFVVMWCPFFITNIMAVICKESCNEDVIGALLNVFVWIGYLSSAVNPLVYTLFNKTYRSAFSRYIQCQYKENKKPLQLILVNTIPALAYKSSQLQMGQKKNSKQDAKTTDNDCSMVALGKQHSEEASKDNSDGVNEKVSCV

[5] = cited from earlier work

Sequence of central 5-HT2C receptors (P28335 33-458): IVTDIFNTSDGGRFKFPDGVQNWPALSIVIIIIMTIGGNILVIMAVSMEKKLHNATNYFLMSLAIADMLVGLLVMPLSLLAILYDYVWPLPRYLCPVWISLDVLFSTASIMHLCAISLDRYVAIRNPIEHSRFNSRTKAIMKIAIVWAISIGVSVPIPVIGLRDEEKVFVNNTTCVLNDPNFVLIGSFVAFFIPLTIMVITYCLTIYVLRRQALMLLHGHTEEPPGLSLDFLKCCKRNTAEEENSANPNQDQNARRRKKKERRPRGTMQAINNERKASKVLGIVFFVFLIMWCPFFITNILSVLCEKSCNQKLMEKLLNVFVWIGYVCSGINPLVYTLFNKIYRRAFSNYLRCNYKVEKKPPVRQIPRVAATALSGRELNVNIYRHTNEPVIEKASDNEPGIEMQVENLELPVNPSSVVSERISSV

Structure (SMILES)	step-through latency into the dark compartment (Male Wistar rats; Day 1 administration, 30 min before Acquisition, latency on Day 2)	step-through latency into the dark compartment (Male Wistar rats; Day 2 administration, 30 min before Retention test)	effect in Vogel lick-conflict model (rats)	binding to 5-HT2C receptors (central 5-HT2C receptors)	effect in learned helplessness [1]	anxiolytic activity in light-dark model [2]	number of social interactions [3]	activity in marble burying test [4]	binding to 5-HT2A receptors (central 5-HT2A receptors)	effect on CCK agonist induced anxiety in elevated plus-maze ([5]; CCK agonist induced anxiety)	activity in elevated plus-maze, alone ([5]; deramciclane alone)
CN(C)CCO[C@]1(c2ccccc2)C[C@H]2CC[C@]1(C)C2(C)C.O=C(O)/C=C/C(=O)O [(1R,2S,4R)-(−)-2-(2-dimethylaminoethoxy)-2-phenyl-1,7,7-trimethyl-bicyclo[2.2.1]heptane-fumarate]	significantly increased	significantly increased	–	–	–	–	–	–	–	–	–
CN(C)CCO[C@]1(c2ccccc2)C[C@H]2CC[C@]1(C)C2(C)C [deramciclane, (1R,2S,4R)-(−)-2-(2-dimethylaminoethoxy)-2-phenyl-1,7,7-trimethylbicyclo[2.2.1]heptane]	–	–	effective	binds	effective	showed anxiolytic activity	increased the number of social interactions	displayed significant activity	binds	antagonized CCK agonist induced anxiety	completely inactive
